Results: patent US6001880A, “Alkylenediamine derivative, anti-ulcer drug, and antibacterial drug” (Shiseido Co., Ltd., priority 1997, dated 1999)

Assays:
[1] = tested on: stress ulcer formation in rats; experiment: WIS: Restraint and Water Immersion Stress-Induced Ulcer Inhibition Test; type: in vivo, rat (male Crj:SD or Slc:SD); conditions: 100 mg/kg oral, 10 minutes before 7 h restraint and water immersion (21° C.)
Procedure, shortened: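 Overnight-fasted male SD rats (6–7 weeks, n=5–8) dosed orally at 100 mg/kg in 0.3% CMC-Na or 0.05% Tween 80; 10 min later restrained and immersed to xiphoid in 21° C water for 7 h. Ulcer index is summed glandular erosion length; inhibition % = (1 − UI sample/UI control).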

[2] = MTT: Cell Damaging and Protecting Effect Test; type: cell-based, rabbit (male Japanese White); conditions: rabbit, gastric corpus mucosa cells, final concentration 10^-4 M, smaller value is better, read-out: MTT: cell damaging rate
Procedure, shortened: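 Primary gastric corpus mucosal cells from male Japanese White rabbit, enzymatically dispersed and cultured 3 days to confluence. Compound at final 10^-4 M added with MTT for 4 h at 37 °C; formazan read at OD 570–630. Cell damaging rate (%) calculated against control absorbance.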

[3] = tested on: Helicobacter pyroli (HP NCTC 11637); experiment: AHP: Antibacterial Activity Test Against Helicobacter pyroli (agar dilution); type: cell-based, Helicobacter pyroli NCTC 11637
Method: AHP: Antibacterial Activity Test Against Helicobacter pyroli The minimum inhibitory concentration (MIC) against Helicobacter pyroli (microacrophilic gram-negative bacterium which is supposed to deeply involve in pathogenesis, relapse, and recrudescence of ulcer, referred to as "HP" in the following) is measured so as to find out compounds which have antibacterial activity against Helicobacter pyroli. MICs were determined by the agar dilution method. The stock culture (-80° C.) of HP NCTC 11637 was thawed and cultured on tripticase soy agar supplemented with 5% sheep blood at 37° C. in an atmosphere of 5% O2, 10% CO2, and 85% N2. Grown colonies were transferred to the same plate and precultured for 3 days under the same condition. […] An appropriate amount of the colony grown on the plate by preculturing was suspended in Mueller Hinton broth till turbidness was recognizable by naked eyes, thereby yielding a bacterial suspension concentrate containing about 10^7 cfu/ml. […] 10 μl of the bacterial suspension for inoculation (about 10^3 cfu) was dropped by dispenser onto an MIC plate for inoculation and cultured for 7 days under the same condition as that of preculture. Thereafter, it was judged whether there had been bacteria growth or not. […] As the result of the comparison of these plates, when the number of the colony on the plate containing the sample compound was less than 90% with respect to that on the control plate, it was represented by "+". Contrary to this, when there was 90% or more, it was represented by "-".

Row | SMILES | WIS: ulcer formation inhibitory rate [1] [%] | cytotoxicity at 4 h, 100 µM [2] [%] | MIC ([3]; Helicobacter, NCTC11637, 168 h, agar dilution, HP NCTC 11637, 7 days) [µg/mL] | AHP: growth class where MIC was 100 μg/ml or more ([3]; MIC 100 μg/ml or more, colony number vs control plate, 250 mM solution of sample compound)
1 | CCN(CC)CCNC(=O)c1cc(OCC=C(C)C)cc(OCC=C(C)C)c1 [Example 14] | 86 | 43 | – | –
2 | CCN(CC)CCNC(=O)c1cc(OC/C=C(\C)CCC=C(C)C)ccc1OC/C=C(\C)CCC=C(C)C [Example 16] | 82 | 40 | – | –
3 | CC(C)=CCC/C(C)=C/COc1ccc(OC/C=C(\C)CCC=C(C)C)c(C(=O)NCCN(C(C)C)C(C)C)c1 [Example 17] | 62 | 27 | < 3.13 | –
4 | CCN(CC=C(C)C)c1ccc(C(=O)NCCN(C(C)C)C(C)C)cc1 [Example 28] | 87 | 16 | – | + (the number of the colony on the plate containing the sample compound was less than 90% with respect to that on the control plate)
5 | CCN(CC)CCNC(=O)c1cc(OC)c(OC/C=C(\C)CCC=C(C)C)c(OC)c1 [Example 37] | 69 | 39 | – | –
6 | CCN(CC)CCNC(=O)c1cc(OC)c(OC/C=C(/C)CCC=C(C)C)c(OC)c1 [Example 38] | 86 | 30 | – | –
7 | COc1cc(C(=O)NCCN(C)C)cc(OC/C=C(\C)CCC=C(C)C)c1OC [Example 42] | 81 | 17 | – | –
